The target in series [1] is rat brain benzodiazepine receptors (3H-diazepam receptor). The experiment in a line: benzodiazepine receptor binding test in vitro (inhibition of specific 3H-diazepam binding to rat brain membranes). The note with it: Ki = IC50/(1+C/KD), read-out: Ki (inhibitor constant, 3H-diazepam binding). From the text:
The pharmacological properties of the compounds of the present invention were first investigated by submitting them to the benzodiazepine receptor binding test in vitro.

The test system of series [2] is male rats of the CFHB Wistar strain. The series can be described thus: conditioned avoidance test (secondary conditioned response, pole climbing). The class given is in vivo, rat (CFHB Wistar). The note with it: intraperitoneally, doses of between about 1/30 and 1/10 of the corresponding LD50s. Here is the method:
(§1) Some of the compounds of the above list were also tested in vivo in those pharmacological tests thought to be predictive of anxiolytic activity in man. Classical pharmacological tests employed to confirm the antianxiety activity were the conditioned avoidance test and the antipentylenetetrazole test in mice. The conditioned avoidance test was carried out according to the method described by Cook and Weidley in Ann. N.Y. Acad. Sci. 1957, 66, 740, and subsequently modified by Maffii (J. Pharm. and Pharmacol., 1959, 11, 129-139). In this procedure a rat is placed in a chamber with a grid floor through which electric shocks may be delivered. This chamber is also equipped with a buzzer and with a wooden pole, electrically isolated, which is suspended from the top of the experimental chamber.
The animal soon learns to escape the shock by climbing the pole (unconditioned response--U.R.) and by climbing the pole in response to the buzzer alone (conditioned avoidance response--CR). After further exposure to the situation, the rat becomes conditioned and climbs the pole before the buzzer is activated; when this response becomes stable, the rat is considered to have developed a secondary conditioned response (CR2).
(§2) The drug to be studied is then administered to these long-trained animals and its deconditioning effect is evaluated. […] Moreover, the activity of some of the compounds of the present invention has been tested in the antipentylenetetrazole test in mice. The experiments have been carried out by following essentially the methodology described by Berger in J. Pharm. Exptl. Ther. 104, 468, (1952). More particularly, a fatal dose of pentylentetrazole (140 mg/kg s.c.) was administered to groups of ten mice each, 30 minutes after a selected dose of the potential anticonvulsant compound. […] Since the animals of the control group died within 30 minutes, the effectiveness of the compounds tested at each dose tested was expressed as the number of animals of the group which were still alive two hours after the administration of pentylenetetrazole, out of the total number of animals of the group (10).

The test system of series [3] is mice (pentylenetetrazole-induced death). The series can be described thus: antipentylenetetrazole test in mice. The class given is in vivo. The note with it: pentylenetetrazole 140 mg/kg s.c. 30 min later, alive after 2 hours. On the procedure:
as §1, §2

Series [4] can be described thus: LD50 (acute toxicity, i.p.). The following applies: in vivo, ip.

The values below come from patent US4788186A, “6-substituted-s-triazolo[3,4-a]phthalazine derivatives” (Gruppo Lepetit S.p.A., priority 1982, dated 1988).

The Ki is the equilibrium dissociation constant of an inhibitor or competing ligand from its target. By LD50 is commonly meant the dose at which mortality reaches 50%. Low readings indicate greater toxicity, high ones lower toxicity.

For the compound `c1ccc(-c2nnc3c4ccccc4c(N4CCCC4)nn23)cc1` [Example 27, 3-phenyl-6-(1-pyrrolidinyl)-1,2,4-triazolo[3,4-a]phthalazine], the Ki in series [1] is 16 nM.

Regarding `CCOc1nn2c(-c3ccccc3)nnc2c2ccccc12` [Example 85, 6-ethoxy-3-phenyl-1,2,4-triazolo[3,4-a]phthalazine], the Ki in series [1] was found to be 7.8 nM.

Consider `Fc1ccc(-c2nnc3c4ccccc4c(N4CCCC4)nn23)cc1` [Example 64], for which, in series [1], the Ki was found to be 20 nM.

For the compound `CC1CC(C)CN(c2nn3c(-c4ccccc4)nnc3c3ccccc23)C1` (stereo not drawn) [Example 73], in series [2], the “effect on primary conditioned and unconditioned responses (CR and U.R.)” value (shortened to “effect … (CR and U.R.)”) is “without influencing the primary conditioned and the unconditioned responses (CR and U.R.)”; the “effect on secondary conditioned response (CR2)” value (from here on “effect … (CR2)”) is on record as “effective in inhibiting the secondary conditioned response (CR2)”. In addition, the Ki in series [1] was found to be 210 nM.

Regarding `c1ccc(-c2nn3cnnc3c3ccccc23)cc1` [Example 114, 6-phenyl-1,2,4-triazolo[3,4-a]phthalazine], in series [2], the “effect … (CR and U.R.)” value is “without influencing the primary conditioned and the unconditioned responses (CR and U.R.)”; the “effect … (CR2)” value is “effective in inhibiting the secondary conditioned response (CR2)”.

For `COc1ccc(-c2nnc3c4ccccc4c(OCCCCO)nn23)cc1` [Example 103, 6-(4-hydroxybutoxy)-3-(4-methoxyphenyl)-1,2,4-triazolo[3,4-a]phthalazine], the Ki in series [1] was determined as 0.427 nM.

`Oc1ccc(-c2nnc3c4ccccc4c(N4CCCC4)nn23)cc1` [Example 74]: in series [1], the Ki came out at 17 nM.

On to `COCCN(CCOC)c1nn2c(-c3ccc(OC)cc3)nnc2c2ccccc12` [Example 67], for which, in series [2], the “effect … (CR and U.R.)” value was “without influencing the primary conditioned and the unconditioned responses (CR and U.R.)”; the “effect … (CR2)” value was “effective in inhibiting the secondary conditioned response (CR2)”. Besides, the Protected/treated in series [3] (dose 5 mg/kg i.p.) is recorded as 4/10. In addition, the Protected/treated in series [3] (dose 10 mg/kg i.p.) is recorded as 8/10. The Ki in series [1] amounted to 2.7 nM. Further, the LD50 in series [4] was no less than 300 mg/kg.

For `CC(O)CN(C)c1nn2c(-c3ccccc3)nnc2c2ccccc12` (stereo not drawn) [Example 29], in series [1], the Ki amounted to 28 nM.

Regarding `O=C1Nc2ccc(Cl)cc2C(c2ccccc2)=NC1O` (stereo not drawn) [Oxazepam, reference compound], the Ki in series [1] was 5.2 nM.

As to `c1ccc(-c2nnc3c4ccccc4c(N4CCCCC4)nn23)cc1` [Example 43], the Ki in series [1] amounted to 16 nM.

Consider `CN(C)c1nn2c(-c3ccccc3)nnc2c2ccccc12` [Example 41], for which the Ki in series [1] was found to be 21 nM.

`COc1ccc(-c2nnc3c4ccccc4c(N4CCCC4)nn23)cc1` [Example 47]: the inhibition constant (Ki) in series [1] turned out to be 3.9 nM.

Consider `COc1ccc(-c2nnc3c4ccccc4c(N4CCCC4)nn23)cc1OC` [Example 54], for which, in series [2], the “effect … (CR and U.R.)” value was “without influencing the primary conditioned and the unconditioned responses (CR and U.R.)”; the “effect … (CR2)” value was “effective in inhibiting the secondary conditioned response (CR2)”.

As to `CCOC(=O)CCCOc1nn2c(-c3ccc(OC)cc3)nnc2c2ccccc12` [Example 104, 4[[3-(4-methoxyphenyl)-1,2,4-triazolo[3,4-a]phthalazin-6-yl]oxy]butanoic acid ethyl ester], in series [1], the Ki amounted to 0.806 nM.

As to `CC1(C)CN(c2nn3c(-c4ccccc4)nnc3c3ccccc23)C1` [Example 45], in series [2], the “effect … (CR and U.R.)” value was “without influencing the primary conditioned and the unconditioned responses (CR and U.R.)”; the “effect … (CR2)” value is “effective in inhibiting the secondary conditioned response (CR2)”. Also, in series [1], the Ki was found to be 32 nM.

`COc1ccc(-c2nnc3c4ccccc4c(N4CCC(O)C4)nn23)cc1` (stereo not drawn) [Example 79]: the Ki in series [1] came to 2.7 nM.

With `COc1ccc(-c2nnc3c4ccccc4c(N(C)CCCC#N)nn23)cc1` [Example 107, 4-[[3-(4-methoxyphenyl)-1,2,4-triazolo [3,4-a]phthalazin-6-yl]methylamino]butanonitrile], the Ki in series [1] turned out to be 0.565 nM.

In the case of `c1ccc(-c2nnc3c4ccccc4c(N4CCOCC4)nn23)cc1` [Example 30], in series [2], the “effect … (CR and U.R.)” value was “without influencing the primary conditioned and the unconditioned responses (CR and U.R.)”; the “effect … (CR2)” value was “effective in inhibiting the secondary conditioned response (CR2)”. In series [1], the Ki worked out at 18 nM.

Regarding `CCOC(=O)C1CCN(c2nn3c(-c4ccc(OC)cc4)nnc3c3ccccc23)CC1` [Example 72], in series [2], the “effect … (CR and U.R.)” value is “without influencing the primary conditioned and the unconditioned responses (CR and U.R.)”; the “effect … (CR2)” value is reported as “effective in inhibiting the secondary conditioned response (CR2)”. In addition, the Ki in series [1] came to 1.5 nM.

As to `CCS(=O)(=O)c1nn2c(-c3ccccc3)nnc2c2ccccc12` [Example 112, 6-(ethyl-sulfonyl)-3-phenyl-1,2,4-triazolo[3,4-a]phthalazine], in series [2], the “effect … (CR and U.R.)” value is “without influencing the primary conditioned and the unconditioned responses (CR and U.R.)”; the “effect … (CR2)” value is listed as “effective in inhibiting the secondary conditioned response (CR2)”. Moreover, the Ki in series [1] came to 60 nM.

For `CCN(CC)c1nn2c(-c3ccccc3)nnc2c2ccccc12` [Example 42], the inhibitory constant (Ki) in series [1] worked out at 57 nM.

In the case of `CCNc1nn2c(-c3ccccc3)nnc2c2ccccc12` [Example 36], in series [1], the Ki came out at 48 nM.

Turning to `CCOC(=O)CCCN(C)c1nn2c(-c3ccc(OC)cc3)nnc2c2ccccc12` [Example 108], the Ki in series [1] was 0.524 nM.

Consider `Nc1ccc(-c2nnc3c4ccccc4c(N4CCCC4)nn23)cc1` [Example 75], for which the Ki in series [1] came to 29 nM.

Turning to `CCN(CC)CCN1C(=O)CN=C(c2ccccc2F)c2cc(Cl)ccc21` [Flurazepam, reference compound], the inhibition constant Ki in series [1] turned out to be 8.58 nM.

As for `COc1ccc(-c2nnc3c4ccccc4c(N(C)CCCO)nn23)cc1` [Example 32, N-(3-hydroxypropyl)-N-methyl-3-(4-methoxyphenyl)-1,2,4-triazolo[3,4-a]phthalazin-6-amine], the Ki in series [1] was 0.968 nM.

`COc1ccc(-c2nnc3c4ccccc4c(N(C)CC(C)O)nn23)cc1` (stereo not drawn) [Example 31]: in series [2], the “effect … (CR and U.R.)” value is “without influencing the primary conditioned and the unconditioned responses (CR and U.R.)”; the “effect … (CR2)” value was “effective in inhibiting the secondary conditioned response (CR2)”. Besides, the Protected/treated in series [3] (dose 10 mg/kg i.p.) is listed as 6/10. Besides, the Protected/treated in series [3] (dose 20 mg/kg i.p.) is reported as 9/10. For the same compound, the Ki in series [1] was determined as 17 nM. This compound displayed a 50% lethal dose (LD50) in series [4] of no less than 300 mg/kg.

As to `CN1CCN(c2nn3c(-c4ccccc4)nnc3c3ccccc23)CC1` [Example 44], the Ki in series [1] turned out to be 57 nM.

Regarding `CCCCCOc1ccc(-c2nnc3c4ccccc4c(OCC)nn23)cc1OC` [Example 93], in series [2], the “effect … (CR and U.R.)” value was “without influencing the primary conditioned and the unconditioned responses (CR and U.R.)”; the “effect … (CR2)” value is given as “effective in inhibiting the secondary conditioned response (CR2)”.

For `CCOc1nn2c(-c3ccc(OC)cc3)nnc2c2ccccc12` [Example 101], the Ki in series [1] amounted to 2.9 nM.

In the case of `COCCOc1nn2c(-c3ccc(OC)cc3)nnc2c2ccccc12` [Example 105, 6-(2-methoxyethoxy)-3-(4-methoxyphenyl)-1,2,4-triazolo[3,4-a]phthalazine], the “effect … (CR and U.R.)” value in series [2] is “without influencing the primary conditioned and the unconditioned responses (CR and U.R.)”. Further, the “effect … (CR2)” value in series [2] is listed as “effective in inhibiting the secondary conditioned response (CR2)”. Further, the Protected/treated in series [3] (dose 15 mg/kg i.p.) was 3/10; in series [3] (dose 25 mg/kg i.p.), 8/10. Besides, the Ki in series [1] worked out at 0.9 nM. In addition, in series [4], the LD50 was roughly 500 mg/kg.

Turning to `CNc1nn2c(-c3ccccc3)nnc2c2ccccc12` [Example 35], the Ki in series [1] amounted to 46 nM.

Regarding `CCN(C)c1nn2c(-c3ccccc3)nnc2c2ccccc12` [Example 46], the Ki in series [1] turned out to be 14 nM.

On to `CC(=O)Nc1ccc(-c2nnc3c4ccccc4c(N4CCCC4)nn23)cc1` [Example 51], for which, in series [1], the Ki came to 40 nM.
